Measured values: patent publication US9981940B2, “Aryl sulfide derivatives and aryl sulfoxide derivatives as acaricides and insecticides” (BAYER CROPSCIENCE AKTIENGESELLSCHAFT, priority 2013, dated 2018)

How the values were obtained:
[1] = test system: Tetranychus urticae; experiment: Tetranychus urticae spray test, OP-resistant (TETRUR); assay type: in vivo; conditions: after 6 days; for pest or weed control at 500 g/ha: Tetranychus urticae, 144 h, read-out: efficacy
In short: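 Bean leaf discs infested with all stages of an OP-resistant Tetranychus urticae strain sprayed with compound in acetone/DMF with alkylaryl polyglycol ether emulsifier, diluted in water. Efficacy in % scored after 6 days; 100% means all mites killed.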

[2] = log P by HPLC (OECD Guideline 117), method [a] acidic range; assay type: physicochemical; conditions: for logP[a]: HPLC, method [a] acidic range; for chromatographic logP: reversed-phase C18 HPLC column, acidic range
Method: (§1) The log P values were determined analogously to OECD Guideline 117 (EC Directive 92/69/EEC) by HPLC (high-performance liquid chromatography) using reversed-phase columns (C 18), by the following methods:
[a] The LC-MS determination in the acidic range is effected at pH 2.7 with 0.1% aqueous formic acid and acetonitrile (contains 0.1% formic acid) as eluents; linear gradient from 10% acetonitrile to 95% acetonitrile.

[3] = log P by HPLC (OECD Guideline 117), method [b] neutral range; assay type: physicochemical; conditions: HPLC; for logP[b]: method [b] neutral range; for chromatographic logP: reversed-phase C18 HPLC column, neutral range, pH 7.8
Method: as §1
[b] The LC-MS determination in the neutral range is effected at pH 7.8 with 0.001 molar aqueous ammonium hydrogencarbonate solution and acetonitrile as eluents; linear gradient from 10% acetonitrile to 95% acetonitrile.

[4] = pH 2.7, HPLC method [a], read-out: logP[a]
[5] = pH 2.7, HPLC, pH 2.7, read-out: log P[a]

Structure (SMILES) | efficacy ([1]; application rate of 500 g/ha) | logP[a] [2] | logP[b] [3] | efficacy ([1]; application rate of 100 g/ha) | pest or weed control at 500 g/ha ([1]; application rate of 500 g/ha) | chromatographic logP [2, 4] | chromatographic logP [2, 5] | chromatographic logP [3]
Cc1ccc(-n2nc(OCC(C)(C)C)n(C)c2=O)cc1[S+]([O-])CC(F)(F)F (centres unmarked) [Example 162] | 90% | 3.67 | 3.57 |  |  |  |  | 
Cc1cc(F)c(-n2nc(OC3CCCCC3)n(C)c2=O)cc1[S+]([O-])CC(F)(F)F (centres unmarked) [Example 164] | 90% | 3.29 | 3.22 |  |  |  |  | 
Cc1cc(F)c(-n2nc(OCC(C)(C)C)n(C)c2=O)cc1[S+]([O-])CC(F)(F)F (centres unmarked) [Example 165] | 100% | 3.21 | 3.15 |  |  |  |  | 
Cc1cc(F)c(-n2nc(OC(C)C)n(C)c2=O)cc1[S+]([O-])CC(F)(F)F (centres unmarked) [Example 166] | 90% | 2.48 | 2.44 |  |  |  |  | 
COc1nn(-c2cc([S+]([O-])CC(F)(F)F)c(F)cc2F)c(=O)n1C (centres unmarked) [Example 169] | 90% | 1.81 | 1.77 |  |  |  |  | 
COc1nn(-c2cc([S+]([O-])CC(F)(F)F)c(F)cc2F)c(=O)n1C1CC1 (centres unmarked) [Example 170] | 100% | 2.15 | 2.11 |  |  |  |  | 
COc1nn(-c2cc(SCC(F)(F)F)c(F)cc2F)c(=O)n1C1CC1 [Example 171] | 100% | 2.97 | 2.92 |  |  |  |  | 
COc1nn(-c2cc([S+]([O-])CC(F)(F)F)c(Br)cc2F)c(=O)n1C1CC1 (centres unmarked) [Example 172] | 100% | 2.57 | 2.53 |  |  |  |  | 
COc1nn(-c2cc(SCC(F)(F)F)c(Br)cc2F)c(=O)n1C1CC1 [Example 173] | 100% | 3.43 | 3.36 |  |  |  |  | 
COc1nn(-c2cc(SCC(F)(F)F)c(Br)cc2F)c(=O)n1C [Example 175] |  | 3.04 | 2.98 | 100% |  |  |  | 
Cc1cc(F)c(-n2nc(OCc3ccccc3)n(C)c2=O)cc1[S+]([O-])CC(F)(F)F (centres unmarked) [Example 177] |  | 2.92 | 2.85 | 100% |  |  |  | 
Cc1ccc(-n2nc(OCc3ccccc3)n(C)c2=O)cc1[S+]([O-])CC(F)(F)F (centres unmarked) [Example 178] | 90% | 3.23 | 3.18 |  |  |  |  | 
CCn1c(OC)nn(-c2cc(SCC(F)(F)F)c(C)cc2F)c1=O [Example 180] | 100% | 3.16 | 3.10 |  |  |  |  | 
C=CCn1c(OC)nn(-c2cc(SCC(F)(F)F)c(C)cc2F)c1=O [Example 182] | 100% | 3.30 | 3.24 |  |  |  |  | 
Cc1cc(F)c(-n2nc(OC(C)(C)C)n(C)c2=O)cc1[S+]([O-])CC(F)(F)F (centres unmarked) [Example 184] | 100% | 2.82 | 2.76 |  |  |  |  | 
O=c1n(-c2cc(SCC(F)(F)F)c(Cl)cc2Cl)nc(OCC(F)(F)F)n1C1CC1 [Example 185] | 90% | 4.14 | 4.10 |  |  |  |  | 
Cc1cc(Cl)c(-n2nc(OCC(F)(F)F)n(C3CC3)c2=O)cc1SCC(F)(F)F [Example 187] | 90% | 3.98 | 3.93 |  |  |  |  | 
COc1cc(F)c(-n2nc(OCC(F)(F)F)n(C3CC3)c2=O)cc1SCC(F)(F)F [Example 188] |  | 3.49 | 3.46 | 90% |  |  |  | 
O=c1n(-c2ccc(C(F)(F)F)c(SCC(F)(F)F)c2)nc(OCC(F)(F)F)n1C1CC1 [Example 189] | 100% | 4.55 | 4.48 |  |  |  |  | 
Cc1cc(F)c(-n2nc(N(C)C)n(C)c2=O)cc1SCC(F)(F)F [Example 190] | 90% | 2.84 | 2.81 |  |  |  |  | 

Structure (SMILES) | efficacy ([1]; application rate of 500 g/ha) | logP[a] [2] | logP[b] [3] | efficacy ([1]; application rate of 100 g/ha) | pest or weed control at 500 g/ha ([1]; application rate of 500 g/ha) | chromatographic logP [2, 4] | chromatographic logP [2, 5] | chromatographic logP [3]
Cc1ccc(-n2nc(-n3nc(Oc4ccccc4)n(C)c3=O)n(C)c2=O)cc1SCC(F)(F)F [Example 192] | 90% | 3.76 | 3.68 |  |  |  |  | 
Cc1cc(F)c(-n2nc(N(C)C)n(C3CC3)c2=O)cc1SCC(F)(F)F [Example 193] | 100% | 3.20 | 3.15 |  |  |  |  | 
Cc1cc(F)c(-n2nc(C3CC3)n(N(C)C)c2=O)cc1SCC(F)(F)F [Example 195, 5-Cyclopropyl-4-(dimethylamino)-2-{2-fluoro-4-methyl-5-[(2,2,2-trifluoroethyl)sulphanyl]phenyl}-2,4-dihydro-3H-1,2,4-triazol-3-one] |  |  |  |  | 100% | 3.75 | 3.75 | 3.73
Cc1cc(F)c(-n2nc(C3CC3)n(N)c2=O)cc1SCC(F)(F)F [Example 196] | 100% | 2.67 | 2.61 |  |  |  |  | 
Cc1cc(F)c(-n2nc(C3CC3)n(N(C)C)c2=O)cc1[S+]([O-])CC(F)(F)F (centres unmarked) [Example 197, 5-Cyclopropyl-4-(dimethylamino)-2-{2-fluoro-4-methyl-5-[(2,2,2-trifluoroethyl)sulphinyl]phenyl}-2,4-dihydro-3H-1,2,4-triazol-3-one] |  |  |  |  | 100% | 2.6 | 2.6 | 2.59
COCc1nn(-c2cc(SCC(F)(F)F)c(C)cc2F)c(=O)n1N [Example 198] | 100% | 2.28 | 2.22 |  |  |  |  | 
CNn1c(C2CC2)nn(-c2cc(SCC(F)(F)F)c(C)cc2F)c1=O [Example 199] | 100% | 3.15 | 3.07 |  |  |  |  | 
Cc1cc(F)c(-n2nc(C)n(N)c2=O)cc1SCC(F)(F)F [Example 200] | 100% | 2.18 | 2.13 |  |  |  |  | 
Cc1cc(F)c(-n2nc(C)n(N(C)C)c2=O)cc1SCC(F)(F)F [Example 201] | 100% | 3.17 | 3.14 |  |  |  |  | 
CNn1cnn(-c2cc(SCC(F)(F)F)c(C)cc2F)c1=O [Example 203] | 100% | 2.32 | 2.27 |  |  |  |  | 
Cc1cc(F)c(-n2nc(C(C)C)n(N)c2=O)cc1[S+]([O-])CC(F)(F)F (centres unmarked) [Example 204] | 100% | 1.96 | 1.95 |  |  |  |  | 
Cc1cc(F)c(-n2nc(C(F)(F)F)n(N)c2=O)cc1SCC(F)(F)F [Example 205] | 100% | 3.15 | 3.08 |  |  |  |  | 
Cc1cc(F)c(-n2nc(C3CC3)n(N)c2=O)cc1[S+]([O-])CC(F)(F)F (centres unmarked) [Example 206] | 100% | 1.75 | 1.72 |  |  |  |  | 
COCc1nn(-c2cc([S+]([O-])CC(F)(F)F)c(C)cc2F)c(=O)n1N (centres unmarked) [Example 207] | 100% | 1.47 | 1.45 |  |  |  |  | 
CNn1c(C2CC2)nn(-c2cc([S+]([O-])CC(F)(F)F)c(C)cc2F)c1=O (centres unmarked) [Example 208] | 100% | 2.09 | 2.05 |  |  |  |  | 
Cc1cc(F)c(-n2nc(C)n(N(C)C)c2=O)cc1[S+]([O-])CC(F)(F)F (centres unmarked) [Example 210] | 100% | 2.09 | 2.09 |  |  |  |  | 
Cc1cc(F)c(-n2ncn(N)c2=O)cc1SCC(F)(F)F [Example 211] | 100% | 2.02 | 2.01 |  |  |  |  | 
Cc1ccc(-n2nc(C(F)(F)F)n(N)c2=O)cc1SCC(F)(F)F [Example 212] | 90% | 3.38 | 3.37 |  |  |  |  | 
CNn1c(N(C)C)nn(-c2cc(SCC(F)(F)F)c(C)cc2F)c1=O [Example 216] | 100% | 3.03 | 2.99 |  |  |  |  | 
